# Results reported in patent US20100168050A1, “COMPOUNDS HAVING ANTIANGIOGENIC ACTIVITY” (MEDESTEA INTERNAZIONALE S.P.A, priority 2004, published 2010).
# Legend:
# [1] = tested on: HUVEC; experiment: HUVEC apoptosis/necrosis, annexin V and propidium iodide staining; assay type: cell-based, human; conditions: ATP 3 mM
# Description: It is possible that the inhibition of the ATP-dependent pathway can induce the shift to another metabolic activity, as the glycolysis. […] The block of the HUVEC proliferation is further evidenced by the absence of cell apoptosis due to the treatment of the cells with the tested compounds, as reported in the FIG. 9 (the results are representative of 5 experiments). Only the treatment with ATP was able to induce about 4.5% PI positive, e.g. necrotic cells.
# In the second series of experiments, we studied the differences in the apoptosis induction on human promyelocytic leukemia HL60 cells by ATP and by the inhibitors of the P2X7 receptors. Apoptotic cells and necrotic cells were analyzed by staining the cells with annexin V and propidium iodide (PI) (BD Pharmingen apoptosis kit, San Diego, Calif.). Briefly, an aliquot of 10^5 cells was incubated with annexin V-fluorescein isothiocyanate (FITC) and PI for 15 minutes at room temperature in the dark. The cells were immediately analyzed by FACScalibur (Becton Dickinson, Heidelberg, Germany). The emission/excitation wavelengths were 530/488 nm for annexin V FITC (FL1) and 640 nm/488 nm for PI (FL2). The necrotic cells were annexin V- and PI-positive, whereas apoptotic cells were annexin V-positive and PI-negative. The percentage of cells stained in each quadrant was quantified using the cellQuest software (BD Bioscience, San Josew, Calif.). […]
# [2] = tested on: RMA cells (T-cell lymphoma); experiment: Tumor growth after subcutaneous RMA cell injection in C57BL/6 mice; assay type: in vivo, mouse
# Description: RMA cells were derived from the Rausher leukemia virus-induced mouse T-cell lymphoma RBL-5 of B6 origin and maintained in RPMI 1640 medium, supplemented with fetal bovine serum, 1% penicillin/streptomycin and 1% glutamine (complete medium).
# (§1) C57BL/6 female mice weighing about 18-20 g (8 week old) were used. The cells were washed twice with 0.9% NaCl and subcutaneously injected in each mouse in a volume of 100 microliters containing 7×10^4 cells. After 10 days from RMA cell injection, we treated the mice with oATP. Five groups of mice were studied (each of 7 mice): 1) controls, untreated; 2) locally (subcutaneously) (sc) treated with 0.5 mg of oATP; 3) locally (sc) treated with 1 mg oATP; 4) intraperitoneally treated with 1 mg oATP; 5) locally (sc) treated with 1 mg oATP for 3 days only.
# (§2) The mice were observed until the 20th day from the tumor inoculation: they were weighed daily and the size of the tumor mass was daily measured.
# [3] = tested on: lymphocytes from buffy-coat (PMBC), activated or not with PHA; experiment: Cell apoptosis assay, annexin V/PI FACS; assay type: cell-based; conditions: oATP at high concentrations
# Experimental: Lymphocytes were obtained from a buffy-coat by a fycoll gradient and depleted from monocytes by adherence. Lymphocytes were activated with Phytohaemoagglutinin A mitogen (PHA). Apoptosis was evaluated by FACS analysis, after staining with annexin-V FITC-conjugate to show the exposure of phosphatidyl serine on the external side of plasma membranes, and with propidium iodide (PI). Two thousand RMA wt cells and lymphocytes were treated with or without different concentrations of oATP for 24 and 48 hours. The cells were then washed with PBS with Ca++ and Mg++ and stained. Ten thousand cell/sample were analysed and the percentage of annexin V/PI positive cells was calculated with FCS-express software (DE NOVO Software).
# [4] = tested on: human umbilical vein endothelial cells (HUVEC); experiment: HUVEC cell growing number, crystal violet absorbance at 595 nm; assay type: cell-based
# Experimental: HUVEC were isolated from human umbilical cord by collagenase treatment and cultured in 1% gelatine-coated flasks using endotoxin-free Medium 199, containing 20% heat-inactivated fetal bovine serum, 1% bovine retinal-derived growth factor, 90 microg/ml heparin, 100 IU/ml penicillin and 100 microg/ml streptomycin. All experiments were carried out with HUVEc at the passage 1-4.
# We used oATP at the concentration of 500 microM. HUVEC were treated with oATP over night, washed and fixed with glutaraldeide 2% in PBS. The cells were colored with crystal violet 0.1%, washed and dried. The dye solubilization was performed with acetic acid 10% and the absorbance was measured spectrophotometrically at 595 nm, using a microplate reader. The optical density was proportional to the number of cells.
# In the first series of experiments we studied the proliferation of human umbilical vein endothelial cells (HUVEC), obtained as previously described (1). The HUVEC were treated with each of the compounds for 36 hours, washed and fixed with glutaraldeide 2% in PBS. The cells were colored with crystal violet 0.1%, washed and dried. The dye solubilization was performed with acetic acid 10% and the absorbance was measured spectrophotometrically at 595 nm, using a microplate reader. The optical density was proportional to the number of cells.
# [5] = tested on: PBMC transendothelial migration through a HUVEC monolayer; experiment: Transendothelial migration assay, PBMC through HUVEC monolayer; assay type: cell-based, human
# Experimental: VEGF is a prototypic angiogenetic factor which induces endothelial cell proliferation, angiogenesis and capillary permeability. The latter is evidenced by the assay of transendothelial migration. It is known that VEGF increases transendothelial migration. Migration assay was performed using a Transwell double chamber system (5 micrometer polycarbonate membrane). HUVEC (5×10^4 cells/well) were seeded on the filter, in the presence or absence of TNFα (200 U/ml) and oATP 500 microM. Freshly obtained PMBC (peripheral blood mononuclear cells) by means of fycoll from buffy-coat were added in the upper compartment and allowed to migrate over night to the lower chamber which contained RPMI and 10% fetal calf serum. […] Data represent mean±SEM of 7 experiments.
# [6] = tested on: Human endothelial Cells (HUVEC); experiment: Proliferation assay, HUVEC counted in Burker chamber; assay type: cell-based
# Experimental: Human endothelial Cells (HUVEC) were isolated from umbilical vein, counted and seeded in a constant number in a 96-well plate. The cells were cultured as described (Jaffe, E. A. (1984) Biology of Endothelial Cells, Martinus Nighoff Publisher, Boston, USA, pp. 1-260), with or without (control) VEGF (50 ng/ml), in the presence of o-ATP (100 μM), and o-ATP+VEGF. After 24 hours cultivation with or without stimulus, the cells were washed and counted with an optical microscope using a Burker chamber. The results are reported in FIG. 1 and represent the mean±SD of 10 experiments.
# [7] = tested on: microglia cells expressing P22/P2X7; conditions: Ferrari et al. 1997; cited from earlier work
# [8] = tested on: rat paw inflammation (CFA); conditions: WO 02/11737; cited from earlier work
# [9] = tested on: human promyelocytic leukemia HL60 cells; experiment: HL60 apoptosis/necrosis, annexin V-FITC and PI staining; assay type: cell-based; conditions: oATP 300 microM versus PPADS 50 microM and KN62 10 microM
# Experimental: In the second series of experiments, we studied the differences in the apoptosis induction on human promyelocytic leukemia HL60 cells by ATP and by the inhibitors of the P2X7 receptors. Apoptotic cells and necrotic cells were analyzed by staining the cells with annexin V and propidium iodide (PI) (BD Pharmingen apoptosis kit, San Diego, Calif.). Briefly, an aliquot of 10^5 cells was incubated with annexin V-fluorescein isothiocyanate (FITC) and PI for 15 minutes at room temperature in the dark. The cells were immediately analyzed by FACScalibur (Becton Dickinson, Heidelberg, Germany). The emission/excitation wavelengths were 530/488 nm for annexin V FITC (FL1) and 640 nm/488 nm for PI (FL2). The necrotic cells were annexin V- and PI-positive, whereas apoptotic cells were annexin V-positive and PI-negative. The percentage of cells stained in each quadrant was quantified using the cellQuest software (BD Bioscience, San Josew, Calif.). […] FIG. 11 summarizes the effects of the different treatments on the apoptosis/necrosis induction in the HL60 cells.
# [10] = Body weight of RMA tumor-bearing mice during treatment; assay type: in vivo, mouse; conditions: during the different oATP treatments (0.5 or 1 mg sc, 1 mg ip)
# Experimental: as §1, §2
# [11] = tested on: RMA wt cells; experiment: Cell cycle analysis, PI staining, FACScan; assay type: cell-based, mouse
# Experimental: RMA wt cells were treated with different concentrations of oATP for 24 and 48 hours, then fixed for at least four hours in ice-cold 70% ethanol. Cells were stained with a solution containing NP-40, RNase and PI and cell cycle distribution was detected using FACScan (Becton Dickinson, San Jose, Calif.) and analyzed with FCS-express software.
# Cell cycle progression of RMA wt cell line treated with different concentrations of oATP for 24 or 48 hours.
# [12] = tested on: macrophage cell lines; conditions: Murgia et al. 1993; cited from earlier work
# [13] = tested on: TNFalpha receptor 1 (TNFR1) on HUVEC; experiment: Cytofluorometric assay of TNFalpha receptor expression on endothelial cells; assay type: cell-based, human
# Description: In addition, oATP was cytofluorometrically assayed for its ability to modulate the expression of TNFalpha receptors on endothelial cells. As reported in the FIG. 9a, the use of human TNFalpha (100 U/ml) improved the expression of the TNFalpha receptor 1 (TNFR1) on HUVEC. […] However, oATP was able to downregulate the TNFalpha-induced increased expression of TNFR1.
# [14] = tested on: RMA wild type (wt) murine lymphoma T cell line; experiment: Cell apoptosis assay, annexin V/PI FACS; assay type: cell-based, mouse
# Experimental: RMA wild type (wt) murine lymphoma T cell line (ATCC) was grown in RPMI 1640 supplemented with 10% heat inactivated fetal bovine serum, 100 U/ml penicillin, 100 microg/ml streptomycin.
# Apoptosis was evaluated by FACS analysis, after staining with annexin-V FITC-conjugate to show the exposure of phosphatidyl serine on the external side of plasma membranes, and with propidium iodide (PI).
# Two thousand RMA wt cells and lymphocytes were treated with or without different concentrations of oATP for 24 and 48 hours. The cells were then washed with PBS with Ca++ and Mg++ and stained.
# Ten thousand cell/sample were analysed and the percentage of annexin V/PI positive cells was calculated with FCS-express software (DE NOVO Software).
# [15] = group 3: locally (sc) 1 mg oATP
structure (smiles),measurement,setting,value
Nc1ncnc2c1ncn2[C@@H]1O[C@H](COP(=O)(O)OP(=O)(O)OP(=O)(O)O)[C@@H](O)[C@H]1O [ATP],"PI positive, e.g. necrotic cells",[1],about 4.5%
"Nc1ncnc2c1ncn2[C@@H](C=O)O[C@@H](C=O)COP(=O)(O)OP(=O)(O)OP(=O)(O)O [oATP, adenosine-5′-triphosphate-2′,3′-dialdehyde]",consistency of the tumor mass obtained in 20 days,[2]; [15],less solid than the tumor mass obtained in the other groups
same,tumor growth at 20 days from RMA cell injection,[2]; [15],less evident than that observed in the other groups
same,tumor mass (arbitrary units),"[2]; group 3: locally (sc) 1 mg oATP, three days from the beginning of the treatment (until the 14th day)",did not significantly grow
same,tumor mass (arbitrary units),"[2]; group 5: locally (sc) 1 mg oATP for 3 days only, three days from the beginning of the treatment",did not significantly grow
same,tumor growth,[2]; local continuous treatment with 1 mg oATP,significantly slowing the tumor growth
same,apoptosis of lymphocytes,[3],not of lymphocytes
same,cell growing number (HUVEC proliferation),"[4]; 36 hours, ATP 3 mM, oATP 300 microM, PPADS 50 microM, KN62 10 microM",maximal reduction
same,cell growing number (optical density),[4]; oATP 500 microM over night,significantly reduced
same,non-stimulated PBMC transendothelial migration,"[5]; addition of oATP, no TNFα",inhibited
same,TNFα-induced transendothelial migration of PBMC,"[5]; oATP 500 microM, TNFα 200 U/ml, over night",significantly reduces
same,effect on HUVEC proliferative capacity compared with vasostatin,"[6]; in vitro, HUVEC",higher than that induced by vasostatin
same,proliferative capacity of HUVEC,"[6]; o-ATP 100 μM, 24 hours, even in the presence of a mitogen (VEGF 50 ng/ml)",significant reduction
same,IL-1β release (dependent on LPS),[7],selectively inhibited
same,effect on CFA-induced unilateral rat paw inflammation,[8],anti-inflammatory and analgesic effect
same,cell apoptosis induction on HL60,[9],at better extent with respect to PPADS and KN62
same,body weights of the mice,[10],No significant differences
same,% G0/G1,"[11]; oATP 0.1 μM, 24 h",48%
same,% G2/M,"[11]; oATP 0.1 μM, 24 h",19%
same,% S,"[11]; oATP 0.1 μM, 24 h",24%
same,% subG1,"[11]; oATP 0.1 μM, 24 h",9%
same,% G0/G1,"[11]; oATP 0.1 μM, 48 h",50%
same,% G2/M,"[11]; oATP 0.1 μM, 48 h",22%
same,% S,"[11]; oATP 0.1 μM, 48 h",24%
same,% subG1,"[11]; oATP 0.1 μM, 48 h",4%
same,% G0/G1,"[11]; oATP 1 μM, 24 h",38%
same,% G2/M,"[11]; oATP 1 μM, 24 h",10%
same,% S,"[11]; oATP 1 μM, 24 h",29%
same,% subG1,"[11]; oATP 1 μM, 24 h",23%
same,% G0/G1,"[11]; oATP 1 μM, 48 h",52%
same,% G2/M,"[11]; oATP 1 μM, 48 h",26%
same,% S,"[11]; oATP 1 μM, 48 h",19%
same,% subG1,"[11]; oATP 1 μM, 48 h",3%
same,% G0/G1,"[11]; oATP 20 μM, 48 h",50%
same,% G2/M,"[11]; oATP 20 μM, 48 h",19%
same,% S,"[11]; oATP 20 μM, 48 h",23%
same,% subG1,"[11]; oATP 20 μM, 48 h",8%
same,% G0/G1,"[11]; oATP 0.1 mM, 24 h",44%
same,% G2/M,"[11]; oATP 0.1 mM, 24 h",5%
same,% S,"[11]; oATP 0.1 mM, 24 h",20%
same,% subG1,"[11]; oATP 0.1 mM, 24 h",31%
same,% G0/G1,"[11]; oATP 0.1 mM, 48 h",33%
same,% G2/M,"[11]; oATP 0.1 mM, 48 h",20%
same,% S,"[11]; oATP 0.1 mM, 48 h",33%
same,% subG1,"[11]; oATP 0.1 mM, 48 h",14%
same,% G0/G1,"[11]; oATP 1 mM, 24 h",16%
same,% G2/M,"[11]; oATP 1 mM, 24 h",3%
same,% S,"[11]; oATP 1 mM, 24 h",6%
same,% subG1,"[11]; oATP 1 mM, 24 h",75%
same,% G0/G1,"[11]; oATP 1 mM, 48 h",44%
same,% G2/M,"[11]; oATP 1 mM, 48 h",7%
same,% S,"[11]; oATP 1 mM, 48 h",25%
same,% subG1,"[11]; oATP 1 mM, 48 h",24%
same,ATP-induced permeabilization of the plasma membrane,[12],able to block
same,TNFalpha-induced increased expression of TNFR1,[13]; human TNFalpha 100 U/ml plus oATP,downregulate
same,expression of TNFR1 on HUVEC,[13]; oATP alone,did not modify such expression
same,percentage of AnnexinV/PI positive cells,"[14]; RMA wt, oATP 1 mM, 48 hours",strongly increases
same,apoptosis of RMA cells,[14]; oATP at high concentrations,able to induce apoptosis
